For one assay, the target named is cathepsin B (Rattus norvegicus, UniProt P00787). In words: In vitro inhibition of cathepsin B. The assay is classed as biochemical. To be noted: r rat cathepsin B, substrate N-CBZ-Phe-Arg-AMC, pH 5.1, 10 min incubation at room temperature. The protocol:
In vitro assay procedure for cathepsin B
The compounds of formula I were tested for inhibition of cathepsin B using the known method (A. J. Barret et al., Biochem. J. 1982, 201, 189-198). To a 170 μl of enzyme-buffer mixture (enzyme: r rat cathepsin B, diluted to give approximate 10 F units/min, buffer: 56 mM sodium acetate, 1.124 mM EDTA, 10 mM DTT, pH 5.1) a 10 μL of inhibitor (dissolved in DMSO) was added. After 10 min of incubation at room temperature, a 20 μl of 5 mM substrate (N-CBZ-Phe-Arg-AMC, dissolved in DMSO) was added to initiate reaction. Reading is followed up for 10 min at the fluoroscan reader (excitation at 380 nm emission at 460 nm).
A plot of percentage of inhibition vs inhibitor concentration is obtained, and IC50 is determined using a linear regression calculations (concentration of inhibitor which will give 50% inhibition).

In a further assay the target is cathepsin L (Rattus norvegicus, UniProt P07154). In words: In vitro inhibition of cathepsin L. The assay is classed as biochemical. To be noted: r rat cathepsin L, substrate N-CBZ-Phe-Arg-AMC, pH 5.0, 10 min incubation at room temperature. How it is done: In vitro assay procedure for cathepsin L
Chain of cathepsin L (P07154 114-334): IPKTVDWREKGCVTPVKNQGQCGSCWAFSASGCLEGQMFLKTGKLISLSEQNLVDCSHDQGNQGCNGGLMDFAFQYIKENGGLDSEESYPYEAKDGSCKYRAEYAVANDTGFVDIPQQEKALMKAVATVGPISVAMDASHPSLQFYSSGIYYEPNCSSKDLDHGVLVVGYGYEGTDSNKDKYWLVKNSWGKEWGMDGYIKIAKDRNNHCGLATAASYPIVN
After 10 min of incubation at room temperature, a 20 μl of 1 mM substrate (N-CBZ-Phe-Arg-AMC, dissolved in DMSO) was added to initiate reaction. Reading is followed up for 10 min at the fluoroscan reader (excitation at 380 nm emission at 460 nm).

Where only a bound is given, the exact number is not on record here.

Usually IC50 stands for the concentration that inhibits the measured activity by half. A high value points to lower potency.

Chain of cathepsin B (P00787 80-339): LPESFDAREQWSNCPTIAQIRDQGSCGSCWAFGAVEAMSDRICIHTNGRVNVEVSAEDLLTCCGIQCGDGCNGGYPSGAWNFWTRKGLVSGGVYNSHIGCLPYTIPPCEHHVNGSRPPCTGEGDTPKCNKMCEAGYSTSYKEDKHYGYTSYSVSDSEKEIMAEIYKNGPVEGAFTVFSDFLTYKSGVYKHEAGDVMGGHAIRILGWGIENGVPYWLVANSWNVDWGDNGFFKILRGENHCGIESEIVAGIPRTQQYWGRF

Consider `O=C(NC(C(=O)N[C@@H]1C(=O)N2CCO[C@H]12)c1ccccc1)OCc1ccccc1` (stereo partly drawn) [Example 7, (5R,6S)-6-(N-benzyloxycarbonyl-phenylglycyl)-amino-4-oxa-1-azabicyclo[3.2.0]heptan-7-one], for which the IC50 against cathepsin B was over 50 µM. `O=C(CCc1ccccc1)N[C@@H](Cc1ccccc1)C(=O)N[C@@H]1C(=O)N2CC(CBr)O[C@@H]12` (stereo partly drawn) [Example 10, (5S,6S)-6-{N-(3-phenylpropionoyl)-L-phenylalanyl}-amino-3-bromomethyl-4-oxa-1-azabicyclo[3.2.0]heptan-7-one]: the IC50 turned out to be 0.016 µM at cathepsin L and 1.91 µM against cathepsin B. As for `CC[C@H](C)[C@H](NC(=O)OCc1ccccc1)C(=O)N[C@@H]1C(=O)N2CCO[C@H]12` [Example 4, (5R,6S)-6-(N-benzyloxycarbonyl-L-isoleucyl)-amino-4-oxa-1-azabicyclo[3.2.0]heptan-7-one], the IC50 against cathepsin L was 9.88 µM; on cathepsin B, over 50 µM. On the same counts, the results for `O=C(N[C@@H](Cc1ccccc1)C(=O)N[C@@H]1C(=O)N2CCO[C@H]12)OCc1ccccc1` [Example 2, (5R,6S)-6-(N-benzyloxycarbonyl-L-phenylalanyl)-amino-4-oxa-1-azabicyclo[3.2.0]heptan-7-one] are 0.26 µM and 4.56 µM. For `O=C(N[C@@H]1C(=O)N2CCO[C@H]12)OCc1ccccc1` [Example 1, (5R,6S)-6-benzyloxycarbonylamino-4-oxa-1-azabicyclo[3.2.0]heptan-7-one] the same measures were over 50 µM and over 50 µM. On the same counts, the results for `CC(C)C[C@H](NC(=O)OCc1ccccc1)C(=O)N[C@@H]1C(=O)N2CCO[C@H]12` [Example 6, (5R,6S)-6-(N-benzyloxycarbonyl-L-leucyl)-amino-4-oxa-1-azabicyclo[3.2,0]heptan-7-one] are 0.6 µM and 30 µM. `O=C(CCc1ccccc1)N[C@@H](Cc1ccccc1)C(=O)N[C@@H]1C(=O)N2CC(c3ccccc3)O[C@H]12` (stereo partly drawn) [Example 9, (5R,6S)-6-{N-(3-phenylpropionoyl)-L-phenylalanyl}-amino-3-phenyl-4-oxa-1-azabicyclo[3,2.0]heptan-7-one]: the IC50 against cathepsin L and on cathepsin B was over 50 µM each time. The compound `C[C@H](NC(=O)OCc1ccccc1)C(=O)N[C@@H]1C(=O)N2CCO[C@H]12` [Example 5, (5R,6S)-6-(N-benzyloxycarbonyl-L-alanyl)-amino-4-oxa-1-azabicyclo[3.2,0]heptan-7-one] showed an IC50 at cathepsin B of over 50 µM. Still for that read-out and setting: under `O=C(N[C@@H](Cc1ccccc1)C(=O)N[C@@H]1C(=O)N2CCO[C@@H]12)OCc1ccccc1` [Example 8, (5S,6S)-6-(N-benzyloxycarbonyl-L-phenylalanyl)-amino-4-oxa-1-azabicyclo[3.2.0]heptan-7-one] stands 12.2 µM. For the compound `O=C(N[C@@H]1C(=O)N2CCO[C@H]12)[C@@H]1CCCN1C(=O)OCc1ccccc1` [Example 3, (5R,6S)-6-(N-benzyloxycarbonyl-L-prolyl)-amino-4-oxa-1-azabicyclo[3.2.0]heptan-7-one], the results for the IC50 on cathepsin L and against cathepsin B were 9.4 µM and over 50 µM, respectively.

For the origin of these results see patent publication US5905076A, “6-substituted amino-4-oxa-1-azabicyclo [3,2,0] heptan-7-one derivatives as cysteine protease inhibitors” (National Research Council of Canada, priority 1997, dated 1999).
